Measured values published in article PMC6748986, “Potent modulation of the CepR quorum sensing receptor and virulence in a Burkholderia cepacia complex member using non-native lactone ligands” (Scientific Reports, 2019).
Residue numbers refer to the chain shown, from its start. “And” between values parts separate entries of the source, which are not always exact repeats. Identical values can stand only once. Like-named read-outs stand apart in the source and are kept apart here.

How the values were obtained:
CepR [1] = biological target: T1, CepR (Burkholderia cenocepacia, UniProt B4EMD0); experiment: CepR agonism in E. coli β-galactosidase reporter (Ec-reporter) JLD271 [pJN105-cepR + pSC11-cepI]; assay type: cell-based, B. cenocepacia; settings: for Maximal Activation (%): activity for 100 μM C8-AHL set to 100%, error ±10%
T1 sequence (B4EMD0 1-239): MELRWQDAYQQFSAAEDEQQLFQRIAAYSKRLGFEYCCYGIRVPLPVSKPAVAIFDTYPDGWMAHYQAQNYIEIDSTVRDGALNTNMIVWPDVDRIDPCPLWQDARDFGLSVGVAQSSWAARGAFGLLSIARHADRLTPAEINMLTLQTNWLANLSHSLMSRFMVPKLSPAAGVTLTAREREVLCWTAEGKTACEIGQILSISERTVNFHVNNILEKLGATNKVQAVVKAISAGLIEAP
Method in brief: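 E. coli JLD271 (ΔsdiA) carrying arabinose-inducible CepR (27 mM L-arabinose) and cepI-lacZ fusion, grown 4 h with compound; β-galactosidase measured by CPRG cleavage at 37 °C (~30 min), normalized to OD600. Agonism compared with C8-AHL at 100 μM; screen at 100 μM or solubility limit, then dose-response; ≥3 trials.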

CepR [2] = biological target: T1, CepR; experiment: CepR antagonism in E. coli β-galactosidase reporter (Ec-reporter), competition against C8-AHL; assay type: cell-based, B. cenocepacia; settings: for IC50 / Maximal Inhibition (%): Ec-reporter; for Inh% (100-Act%): Table S3, Ec-reporter
Method in brief: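 CepR antagonism was measured in E. coli JLD271 (∆sdiA) carrying pJN105-cepR, which expresses B. cenocepacia CepR from an arabinose-inducible pBAD promoter, and pSC11-cepI, which fuses lacZ to the cepI promoter. Induced cells were grown 4 h with compound and 10 nM C8-AHL. β-Galactosidase activity was then read by CPRG cleavage at 37 °C after Z Buffer permeabilization.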

CepR [3] = biological target: T2, CepR (Burkholderia multivorans, UniProt Q93PF7); experiment: CepR antagonism in B. multivorans cepI::lacZ reporter (Bm-reporter), competition against C8-AHL; assay type: cell-based; settings: for IC50: read-out: IC50
T2 sequence (Q93PF7 1-239): T1 sequence (B4EMD0 1-239) with W5R, A51S, Q69H, N84S, R95Q, D97A
From the text: (§1) We next sought to assess if the CepR modulators identified in the Ec-reporter maintained their activities in a member of the Bcc. For these studies, we generated a B. multivorans cepI::lacZ reporter organism (Bm-reporter) using standard allelic exchange methods (see Methods). Along with B. cenocepacia, B. multivorans is one of the most commonly isolated Bcc members[6],[44]. We note that small molecules must contend with a different cellular environment in the native organism relative to E. coli[48]; however, as both CepR and the cepI promoter are highly conserved among Bcc species (Fig. S3), we reasoned that the majority of compounds identified in the Ec-reporter (containing B. cenocepacia versions of the cepI promoter and the cepR gene) would maintain their relative activity profiles in CepR in B. multivorans. […] Similar to the Ec-reporter, CepR binding to the cepI promoter then induces β-galactosidase production, allowing for the quantitation of CepR activity. Using the Bm-reporter organism, we observed robust activity for CepR in response to C8-AHL (EC50 = 0.7 nM, Table 3).
(§2) The B. multivorans cepI::lacZ strain was used to obtain dose-response data for CepR in response to synthetic AHLs. Overnight cultures of B. multivorans cepI::lacZ were grown in LB medium at 37 °C with shaking (225 rpm). Aliquots (200 μL) of a 1:10 dilution of this overnight culture were plated into 96-well plates containing varying concentrations of compound, and then grown for 4 h at 37 °C with shaking (225 rpm). β-galactosidase production was measured as described above for E. coli, with the following changes: permeabilized cells were incubated at 25 °C with substrate CPRG for ~10 min until positive control wells developed a deep red color. For agonism assays, synthetic compound was screened alongside and compared to the native ligand, C8-AHL (100 μM). For antagonism assays, the concentration of native ligand utilized was 5 nM (approximately equal to twice its EC50 value).

CepR [4] = biological target: T2, CepR; experiment: CepR agonism in B. multivorans cepI::lacZ reporter (Bm-reporter); assay type: cell-based; settings: for Maximal Activation (%): activity for 100 μM C8-AHL set to 100%, error ±10%; for EC50: read-out: EC50
From the text: as §1, §2

[5] = Table S2, Ec-reporter, screening conc. 100 μM
[6] = Bm-reporter, against 5 nM C8-AHL
[7] = Table S4, Bm-reporter, screening conc. 100 μM
[8] = Ec-reporter, agonism dose-response
[9] = screening conc. 100 μM, against 10 nM C8-AHL
[10] = Bm-reporter, agonism dose-response

SMILES: O=C(COc1cccc([N+](=O)[O-])c1)N[C@H]1CCOC1=O [Compound E25]
- Act% (CepR [1]; [5]): 25%
- IC50 (CepR [2]; against 10 nM C8-AHL): 3000 nM
- Maximal Inhibition (%) (CepR [2]; against 10 nM C8-AHL): 70%
- Maximal Inhibition (%) (CepR [3]; [6]): 83%
- IC50 (CepR [3]; Table S5, Bm-reporter): ≥ 3300 nM

SMILES: Cc1ccc(CCC(=O)N[C@H]2CCOC2=O)cc1 [Compound E26]
- Maximal Activation (%) (CepR [4]; Bm-reporter): 96%
- EC50 (CepR [4]; Table S4, Bm-reporter): 0.77 nM
- Act% (CepR [4]; [7]): 96%
- EC50 (CepR [1]; [8]): 5.9 nM
- Maximal Activation (%) (CepR [1]; Ec-reporter): 96%
- Act% (CepR [1]; [5]): 96%
- Inh% (100-Act%) (CepR [2]; [9]): -10%

SMILES: COc1ccc(CCC(=O)N[C@H]2CCOC2=O)cc1 [Compound E28]
- EC50 (CepR [4]; Table S4, Bm-reporter): 52 nM
- Act% (CepR [4]; [7]): 90%
- EC50 (CepR [1]; [8]): 3.8 nM
- Maximal Activation (%) (CepR [1]; Ec-reporter): 92%
- Act% (CepR [1]; [5]): 92%
- Inh% (100-Act%) (CepR [2]; [9]): -30%

SMILES: O=C(CCc1ccc(F)cc1)N[C@H]1CCOC1=O [Compound E29]
- Act% (CepR [4]; [7]): 94%
- EC50 (CepR [1]; [8]): 2.3 nM
- Maximal Activation (%) (CepR [1]; Ec-reporter): 92%
- Act% (CepR [1]; [5]): 92%
- Inh% (100-Act%) (CepR [2]; [9]): -10%

SMILES: O=C(CCc1ccc(Cl)cc1)N[C@H]1CCOC1=O [Compound E30]
- EC50 (CepR [4]; [10]): 0.75 nM
- Maximal Activation (%) (CepR [4]; Bm-reporter): 84%
- Act% (CepR [4]; [7]): 84%
- EC50 (CepR [1]; [8]): 4.4 nM
- Maximal Activation (%) (CepR [1]; Ec-reporter): 85%
- Act% (CepR [1]; [5]): 85%
- Inh% (100-Act%) (CepR [2]; [9]): -10%

SMILES: O=C(CCc1cccc(Br)c1)N[C@H]1CCOC1=O [Compound E31]
- EC50 (CepR [4]; [10]): ≥ 3400 nM
- Maximal Activation (%) (CepR [4]; Bm-reporter): 78%
- Act% (CepR [4]; [7]): 78%
- EC50 (CepR [1]; [8]): 4.4 nM
- Maximal Activation (%) (CepR [1]; Ec-reporter): 89%
- Act% (CepR [1]; [5]): 89%
- Inh% (100-Act%) (CepR [2]; [9]): -20%

SMILES: O=C(CCc1cccc(I)c1)N[C@H]1CCOC1=O [Compound E33]
- EC50 (CepR [4]; [10]): 0.15 nM
- Maximal Activation (%) (CepR [4]; Bm-reporter): 94%
- Act% (CepR [4]; [7]): 94%
- EC50 (CepR [1]; [8]): 0.95 nM
- EC50 (nM) (CepR [1]; [8]): sub-nanomolar
- Maximal Activation (%) (CepR [1]; Ec-reporter): 92%
- Act% (CepR [1]; [5]): 92%
- Inh% (100-Act%) (CepR [2]; [9]): -20%

SMILES: CSc1ccc(CCC(=O)N[C@H]2CCOC2=O)cc1 [Compound E34]
- EC50 (CepR [4]; [10]): 0.94 nM
- Maximal Activation (%) (CepR [4]; Bm-reporter): 110%
- Act% (CepR [4]; [7]): 110%
- Fold more potent than C8-AHL (CepR [1]; Ec-reporter, EC50 comparison): ~100 fold
- EC50 (CepR [1]; [8]): 0.07 nM and 0.071 nM
- Maximal Activation (%) (CepR [1]; Ec-reporter): 104% and 100%
- Act% (CepR [1]; [5]): 104%
- Inh% (100-Act%) (CepR [2]; [9]): -20%

SMILES: O=C(CCc1cccc(C(F)(F)F)c1)N[C@H]1CCOC1=O [Compound E36]
- EC50 (CepR [4]; [10]): ≥ 3900 nM
- Maximal Activation (%) (CepR [4]; Bm-reporter): 100%
- Act% (CepR [4]; [7]): 103%
- EC50 (CepR [1]; [8]): 26 nM
- Maximal Activation (%) (CepR [1]; Ec-reporter): 92%
- Act% (CepR [1]; [5]): 92%
- Inh% (100-Act%) (CepR [2]; [9]): -10%

SMILES: O=C(CCc1ccc2c(c1)OCO2)N[C@H]1CCOC1=O [Compound E39]
- EC50 (CepR [4]; Table S4, Bm-reporter): 9.1 nM
- Act% (CepR [4]; [7]): 84%
- EC50 (CepR [1]; [8]): 1.4 nM
- Maximal Activation (%) (CepR [1]; Ec-reporter): 100%
- Act% (CepR [1]; [5]): 103%
- Inh% (100-Act%) (CepR [2]; [9]): -40%

SMILES: CCCOc1ccc(C(=O)N[C@H]2CCOC2=O)cc1 [Compound R2]
- Act% (CepR [4]; [7]): 92%
- EC50 (CepR [1]; Table S2, Ec-reporter): 38 nM
- Act% (CepR [1]; [5]): 98%
- Inh% (100-Act%) (CepR [2]; [9]): -10%

SMILES: CC(C)Oc1ccc(C(=O)N[C@H]2CCOC2=O)cc1 [Compound R3]
- Act% (CepR [4]; [7]): 40%
- EC50 (CepR [1]; Table S2, Ec-reporter): 94 nM
- Act% (CepR [1]; [5]): 92%
- Inh% (100-Act%) (CepR [2]; [9]): -10%

SMILES: CCCCOc1ccc(C(=O)N[C@H]2CCOC2=O)cc1 [Compound R4]
- Act% (CepR [4]; Table S4, Bm-reporter, screening conc. 25 μM): 58%
- EC50 (CepR [1]; Table S2, Ec-reporter): 86 nM
- Act% (CepR [1]; Table S2, Ec-reporter, screening conc. 25 μM): 84%
- Inh% (100-Act%) (CepR [2]; screening conc. 25 μM): -30%

SMILES: O=C(N[C@H]1CCOC1=O)C1CCCC1 [Compound S4]
- Act% (CepR [1]; [5]): 0.2%
- IC50 (CepR [2]; against 10 nM C8-AHL): 32000 nM
- Maximal Inhibition (%) (CepR [2]; against 10 nM C8-AHL): 72%
- Maximal Inhibition (%) (CepR [3]; [6]): 93%
- IC50 (CepR [3]; [6]): 3700 nM

SMILES: O=C(Cc1ccc(Br)cc1)N[C@H]1CCOC1=O [Control 7, reference compound]
- Act% (CepR [1]; [5]): 0.2%
- Inh% (100-Act%) (CepR [2]; [9]): 89%
- Inh% (100-Act%) (CepR [3]; Table S5, Bm-reporter, screening conc. 100 μM): 85%
